Source: patent publication US20040005327A1, “Immune T-cell stimulation” (priority 2002, published 2004)
Where “and” joins values, the source holds several entries; their conditions need not be identical. Equal entries are not always repeated.

Test system: T-lymphocytes
Assay: Blastogenesis of T-cells, 3H-thymidine incorporation
Type: cell-based
Details: for 3H-thymidine incorporation/well / Stimulation Index: PHA 5 μg/ml
Procedure: Dilutions of PHA were prepared from 1:100 to 1:1000 and the dilutions were added to mycro-plate system lymphocyte cultures. Phytohemaglutinin, Pockeweed antigen and A Concanavalin were added to identified wells. After the culture period, T-lymphocytes proliferation was determined by radioactive tymidine uptake assay.
The present study compared the mitogenic effect of hyperimmune whole egg and a partially purified fraction of the hyperimmune egg (less then 3K fraction described in Example 2) against control medium alone. The hyperimmune whole egg was tested at varying concentrations that include 0.24, 0.98, 3.9, 15.6, 62.5 and 250 μg/ml. The purified less than 3K fraction from the hyperimmune egg was tested at 0.1, 0.2, 0.7, 2.0, 6.1, 18.4, 55.3 and 166.0 μg/ml concentrations. The Stimulating Index for hyperimmune whole egg, in accordance with the above concentrations, was 0.9, 0.8, 0.9, 0.9, 0.8, and 0.8 respectively, which corresponds, in the test conditions, to a cell population increase of 90, 80, 90, 90, 80 and 80% respectively. The Stimulating Index for the 3K purified fraction, in accordance with the above concentrations, was 1.1, 1.2, 1.5, 1.7, 1.4, 1.3, 1.0 and 1.2 respectively (see Table 2), which corresponds, in the test conditions, to a cell population increasing of 110, 120, 150, 170, 140, 130, 100 and 120% respectively.

[1] = single wells No. 1-6, first study
[2] = single wells No. 1-6, repeated study

Phytohemaglutinin [PHA]
3H-thymidine incorporation/well (AVE of 6 wells, first study): 108028 cpm
Stimulation Index (AVE of 6 wells, first study): 195.8
3H-thymidine incorporation/well (AVE of 6 wells, repeated study): 109901 cpm
Stimulation Index (AVE of 6 wells, repeated study): 292.2
3H-thymidine incorporation/well [1]: 98898 cpm and 121212 cpm and 97149 cpm and 118218 cpm and 101241 cpm and 111452 cpm
Stimulation Index [1]: 179.2 and 219.7 and 176.0 and 214.2 and 183.5 and 202.0
3H-thymidine incorporation/well [2]: 110201 cpm and 121811 cpm and 97453 cpm and 112934 cpm and 102484 cpm and 114522 cpm
Stimulation Index [2]: 293.0 and 323.8 and 259.1 and 300.2 and 272.4 and 304.4
T-lymphocytes proliferation (PHA dilutions 1:100 to 1:1000, radioactive tymidine uptake): increased the proliferation of free mitogen lymphocytes intensively
